Measurements reported in ChEMBL document CHEMBL3124877, “Structure-activity-relationship studies around the 2-amino group and pyridine core of antimalarial 3,5-diarylaminopyridines lead to a novel series of pyrazine analogues with oral in vivo activity” (J Med Chem, 2013).

Key:
[1] = tested on: Liver microsome; test: (§1) Half life in human liver microsomes by LC-MS/MS analysis; type: ADME; conditions: microsomes
[2] = tested on: Liver microsome; conditions: human, microsomes
[3] = physchem; conditions: octanol/water, pH 7.4
[4] = as §1; type: ADME; conditions: liver microsomes
[5] = in vitro; conditions: human, liver microsomes
[6] = tested on: Plasma; test: Apparent plasma concentration in mouse infected with Plasmodium berghei ANKA at 3 mg/kg, po measured after 24 hrs; type: ADME, organism-based; parameters: dose 3 mg/kg, route oral; conditions: in vivo
[7] = Apparent Cmax in mouse infected with Plasmodium berghei ANKA at 3 mg/kg, po measured after 24 hrs; type: ADME, organism-based; parameters: dose 3 mg/kg, route oral; conditions: in vivo
[8] = Apparent AUC in mouse infected with Plasmodium berghei ANKA at 3 mg/kg, po measured after 24 hrs; type: ADME, organism-based; parameters: time < 24 hr, dose 3 mg/kg, route oral; conditions: in vivo
[9] = tested on: Liver microsome; test: Metabolic stability in rat liver microsomes; type: ADME

Compound: COc1ccc(-c2cncc(-c3ccc(S(C)(=O)=O)cc3)c2)cn1
- t1/2 [1]: 0.683 h
- CLH [2]: 11.3 µL/min/mg
- logD [3]: 2.5

Compound: COc1ccc(-c2nc(-c3ccc(S(C)(=O)=O)cc3)cnc2N)cn1
- half-life [4]: 2.57 h
- microsomal CLint [5]: 11 µL/min/mg
- logD [3]: 2.3

Compound: COc1ccc(-c2cc(-c3ccc(S(C)(=O)=O)cc3)nnc2N)cn1
- half-life [4]: > 4.17 h
- microsomal CLint [5]: < 7 µL/min/mg
- logD [3]: 1.7

Compound: COc1ccc(-c2csc3c(-c4ccc(S(C)(=O)=O)cc4)cnc(N)c23)cn1
- half-life [4]: > 4.17 h
- microsomal CLint [5]: < 7 µL/min/mg
- logD [3]: 2.9

Compound: CS(=O)(=O)c1ccc(-c2cnc(N)c(-c3ccc(C(F)(F)F)nc3)n2)cc1
- Cave [6]: 1000 nM
- Cmax [7]: 1500 nM
- AUC at 24 h [8]: 24.3 µM·h
- Stability [9]: Stable
- half-life [4]: > 4.17 h
- microsomal CLint [5]: < 7 µL/min/mg
- logD [3]: 2.8

Compound: CS(=O)(=O)c1ccc(-c2cnc(N)c(-c3ccc(C(F)(F)F)cc3)n2)cc1
- Cave [6]: 300 nM
- Cmax [7]: 500 nM
- AUC at 24 h [8]: 6.4 µM·h
- half-life [4]: 2.58 h
- microsomal CLint [5]: 11 µL/min/mg
- logD [3]: 2.8

Compound: Nc1ncc(-c2ccc(C(=O)N3CCOCC3)cc2)nc1-c1ccc(C(F)(F)F)nc1
- half-life [4]: > 4.17 h
- microsomal CLint [5]: < 7 µL/min/mg

Compound: Nc1ncc(-c2ccc(C(=O)N3CCOCC3)cc2)nc1-c1ccc(C(F)(F)F)cc1
- Cave [6]: 10 nM
- Cmax [7]: 1100 nM
- AUC at 24 h [8]: 0.01 µM·h
- half-life [4]: > 4.17 h
- microsomal CLint [5]: < 7 µL/min/mg
- logD [3]: 3.2

Compound: CCS(=O)(=O)c1ccc(-c2cnc(N)c(-c3ccc(C(F)(F)F)nc3)n2)cc1
- Cave [6]: 10 nM
- Cmax [7]: 1100 nM
- AUC at 24 h [8]: 0.01 µM·h
- half-life [4]: 3.62 h
- microsomal CLint [5]: 8 µL/min/mg
- logD [3]: 3.1

Compound: CNS(=O)(=O)c1ccc(-c2cnc(N)c(-c3ccc(C(F)(F)F)nc3)n2)cc1
- Cave [6]: 10 nM
- Cmax [7]: 2000 nM
- AUC at 24 h [8]: 0.01 µM·h
- half-life [4]: 1.85 h
- microsomal CLint [5]: 12 µL/min/mg
- logD [3]: 2.8

Compound: CNc1ncc(-c2ccc(S(C)(=O)=O)cc2)cc1-c1ccc(OC)nc1
- logD [3]: 2.6

Compound: COc1ccc(-c2cc(-c3ccc(S(C)(=O)=O)cc3)cnc2NCCCCN)cn1
- half-life [4]: > 4.17 h
- microsomal CLint [5]: < 7 µL/min/mg
- logD [3]: 1.8

Compound: COc1ccc(-c2cc(-c3ccc(S(C)(=O)=O)cc3)cnc2I)cn1
- half-life [4]: 3.97 h
- microsomal CLint [5]: 7.3 µL/min/mg
- logD [3]: 3.3

Compound: COc1ccc(-c2cc(-c3ccc(S(C)(=O)=O)cc3)cnc2O)cn1
- logD [3]: 1.7

Compound: CCOc1ncc(-c2ccc(S(C)(=O)=O)cc2)cc1-c1ccc(OC)nc1
- half-life [4]: 2.03 h
- microsomal CLint [5]: 14.2 µL/min/mg
- logD [3]: 3.7

Compound: COc1ccc(-c2cc(-c3ccc(S(C)(=O)=O)cc3)cnc2C(F)(F)F)cn1
- logD [3]: 3

Compound: COc1ccc(-c2nc(-c3ccc(S(C)(=O)=O)cc3)ccc2N)cn1
- logD [3]: 2.3

Compound: COc1ccc(-c2cc(-c3ccc(S(C)(=O)=O)cc3)ccc2N)cn1
- half-life [4]: > 4.17 h
- microsomal CLint [5]: < 7 µL/min/mg
- logD [3]: 2.8

Compound: COc1ccc(-c2cc(-c3ccc(S(C)(=O)=O)cc3)cnc2N)cn1
- half-life [4]: 4.68 h
- microsomal CLint [5]: 6.2 µL/min/mg
- logD [3]: 2.2
